Experimental findings from ChEMBL document CHEMBL4017481, “Computer-aided discovery of two novel chalcone-like compounds active and selective against Leishmania infantum” (Bioorg Med Chem Lett, 2017) are described below.

For one data set, the system named is Leishmania infantum. Description: microbe, parasite or virus in culture. The class given is functional. As to conditions: MHOM/BR/1972/BH046, 72 h.
The nature of data set [1]: (§1) Cytotoxicity against human THP1 cells measured after 72 hrs by resazurin assay. The class given is cell-based, THP-1. The following applies: THP-1 cells. For orientation: Resazurin is reduced to fluorescent resorufin, in cell work by metabolically active cells.
Data set [2] in a line: (§2) Cytotoxicity against African green monkey Vero cells measured after 72 hrs by resazurin assay. The class given is cell-based. As to conditions: chlorocebus sabaeus, Vero cells.
Data set [3] in a line: in vitro. As to conditions: human.
Description: Selectivity index, ratio of CC50 for human THP1 cells to EC50 for Leishmania infantum MHOM/BR/1972/BH046 amastigotes
Data set [4] in a line: in vitro. As to conditions: monkey, Vero cells.
Description: Selectivity index, ratio of CC50 for African green monkey Vero cells to EC50 for Leishmania infantum MHOM/BR/1972/BH046 amastigotes
In a further data set the test system is THP-1. The data set is described as §1. The class given is cell-based. The following applies: thp-1, 72 h.
The next data set has as its system Vero. The description is as §2. The class given is cell-based. The following applies: chlorocebus sabaeus, vero, 72 h.

The structures appear in SMILES notation. pEC50: −log10 of the molar value.

Description for Leishmania infantum: Anti-leishmanial activity against Leishmania infantum MHOM/BR/1972/BH046 amastigotes infected in cells measured after 3 days by Draq5 staining based assay

Turning to `O=C(/C=C/c1ccc([N+](=O)[O-])o1)c1ccc(Br)cc1`, the pEC50 (as a rule, −log10 of the EC50, conventionally taken in molar units) in the data set on Leishmania infantum is 4.54. The CC50 (in general, the concentration that lowers cell viability or growth by half) at 72 h in data set [1] was 13.4 µM; in data set [2] it was above 100 µM. Further, the selectivity ratio in the data set “in vitro [3]” (THP-1 cells) worked out at 0.46; in “in vitro [4]”, 3.4.
In the data set on Leishmania infantum, `O=C(/C=C/c1ccc([N+](=O)[O-])o1)c1ccc(N2CCCCC2)cc1` had a pEC50 of 5.20. Besides, the figures for the CC50 with THP-1 and in the data set on Vero were above 50 µM and 349 µM, respectively. Also, the selectivity ratio in “in vitro [3]” (THP-1 cells) is above 7.91; in the data set “in vitro [4]”, 55.
On to `O=C(/C=C/c1ccc([N+](=O)[O-])o1)c1ccc(N2CCOCC2)cc1`, for which the CC50 at 72 h in data set [1] is 49 µM; in data set [2], above 100 µM.
As to `COc1ccc(/C=C/C(=O)c2cccc(Br)c2)cc1`, the pEC50 with Leishmania infantum is below 4.30. Further, the CC50 at 72 h in data set [1] is above 50 µM; in data set [2] it was above 100 µM. Besides, in the data set “in vitro [3]” (THP-1 cells), the selectivity ratio is above 50.
`COc1ccc(/C=C/C(=O)c2cccc(I)c2)cc1` showed a pEC50 with Leishmania infantum below 4.30. The CC50 in the data set on THP-1 is above 50 µM; with Vero, above 100 µM. Besides, the selectivity ratio in “in vitro [4]” was 2.
`COc1ccc(/C=C/C(=O)c2ccc(-c3ccccc3)cc2)cc1`: the pEC50 in the data set with Leishmania infantum was below 4.30. Also, the CC50 in the data set with THP-1 was above 50 µM.
The corresponding values for `CN(C)c1ccc(/C=C/C(=O)c2ccc(-c3ccccc3)cc2)cc1` are below 4.30 and above 50 µM.
For `O=C(/C=C/c1ccc([N+](=O)[O-])o1)c1ccc(N2CCCC2)cc1`, in the data set on Leishmania infantum, the pEC50 was 4.93. Moreover, in data set [1], the CC50 at 72 h was above 50 µM. Also, the selectivity ratio in the data set “in vitro [3]” (THP-1 cells) is above 4.26.
Compound `CC(C)(C)c1ccc(C(=O)/C=C/c2ccc([N+](=O)[O-])s2)cc1` had a pEC50 in the data set on Leishmania infantum of 4.51. Besides, the CC50 at 72 h in data set [1] lay in the range of 8.4 to 8.49 µM. The compound also showed a CC50 with Vero above 100 µM. The figures for the selectivity ratio in “in vitro [3]” (THP-1 cells) and in “in vitro [4]” were 0.2 to 0.27 and 3 to 3.2, respectively.
As for `Cc1cccc(C(=O)/C=C/c2ccc([N+](=O)[O-])o2)c1`, in the data set with Leishmania infantum, the pEC50 is below 4.30. For the same compound, the CC50 at 72 h in data set [1] was determined as 42.1 µM; in data set [2], 55.1 µM. Moreover, the selectivity ratio in “in vitro [3]” (THP-1 cells) was above 50.
`O=C(/C=C/c1ccc([N+](=O)[O-])cc1)c1ccc(N2CCCCC2)cc1` had a pEC50 in the data set on Leishmania infantum below 4.30. In the data set with THP-1, the CC50 is above 50 µM.
On to `O=C(/C=C/c1ccc([N+](=O)[O-])o1)c1ccc(-n2ccnc2)cc1`, for which, in the data set on Leishmania infantum, the pEC50 is 4.91. Besides, the CC50 at 72 h in data set [1] was 22.2 µM; in data set [2] it was above 100 µM. The selectivity ratio in “in vitro [3]” (THP-1 cells) is 1.79; in “in vitro [4]”, 8.1.
In the data set with Leishmania infantum, `O=C(/C=C/c1ccc([N+](=O)[O-])o1)c1ccc(N2CCNCC2)cc1` showed a pEC50 of 5.02. Also, the CC50 was above 50 µM in the data set on THP-1 and above 100 µM in the data set on Vero. The selectivity ratio in “in vitro [3]” (THP-1 cells) was above 5.2; in the data set “in vitro [4]” it was 10 to 10.4.
Take `Cc1ccc(C(=O)/C=C/c2ccc([N+](=O)[O-])s2)cc1`: the pEC50 with Leishmania infantum is below 4.30. The compound also displayed a CC50 at 72 h in data set [1] of 13.5 µM.
`O=C(/C=C/c1ccc([N+](=O)[O-])o1)c1ccc(C2CCCCC2)cc1`: the CC50 at 72 h in data set [1] lay in the range of 3.1 to 31.1 µM. In the data set on Vero, this compound gave a half-maximal cytotoxic concentration (CC50) above 100 µM. Besides, the selectivity ratio fell in the range of 2.8 to 2.84 in “in vitro [3]” (THP-1 cells) and 9.1 to 10 in “in vitro [4]”.
For `O=C(/C=C/c1ccc([N+](=O)[O-])o1)c1ccc(I)cc1`, in that order: 49.5 µM, above 100 µM, 1.8 to 1.82 and 3.6.
`O=C(/C=C/c1ccc([N+](=O)[O-])s1)c1ccc(C2CCCCC2)cc1`: the pEC50 in the data set on Leishmania infantum was below 4.30. This compound also yielded a CC50 at 72 h in data set [1] above 50 µM.
The corresponding values for `O=C(/C=C/c1ccc([N+](=O)[O-])s1)c1ccc(N2CCOCC2)cc1` are below 4.30 and 39.9 µM.
For `CC(C)(C)c1ccc(C(=O)/C=C/c2ccco2)cc1`, in that order: below 4.30 and above 50 µM.
For the compound `CC(C)(C)c1ccc(C(=O)/C=C/c2ccc([N+](=O)[O-])o2)cc1`, the pEC50 in the data set on Leishmania infantum was below 4.30. The CC50 at 72 h in data set [1] was above 50 µM; in data set [2] it was above 100 µM.
`Cc1ccccc1C(=O)/C=C/c1ccc([N+](=O)[O-])o1` showed a pEC50 in the data set with Leishmania infantum of 4.42. For the same compound, the results for the CC50 at 72 h in data set [1] and in data set [2] were 27.9 µM and 41.3 µM, respectively. For the same compound, the selectivity ratio in “in vitro [3]” (THP-1 cells) was 0.74; in “in vitro [4]” it was 1.
For `CSc1ccc(C(=O)/C=C/c2ccc([N+](=O)[O-])s2)cc1`, the pEC50 with Leishmania infantum was below 4.30. The CC50 at 72 h was 8.56 µM in data set [1] and above 100 µM in data set [2].
For `O=C(/C=C/c1ccco1)c1ccc(N2CCCCC2)cc1`, the pEC50 in the data set with Leishmania infantum is below 4.30. The compound also came in with a CC50 at 72 h in data set [1] above 50 µM. The selectivity ratio in the data set “in vitro [3]” (THP-1 cells) was above 50.
In the data set with Leishmania infantum, `O=C(/C=C/c1ccc([N+](=O)[O-])o1)c1ccc(-c2ccccc2)cc1` showed a pEC50 of 4.67. For the same compound, the half-maximal cytotoxic concentration (CC50) at 72 h in data set [1] was 50.4 µM; in data set [2], above 100 µM. For the same compound, the selectivity ratio was determined as 2.35 in “in vitro [3]” (THP-1 cells) and 4.7 in the data set “in vitro [4]”.
With `O=C(/C=C/c1ccc([N+](=O)[O-])s1)c1ccc(-n2ccnc2)cc1`, the pEC50 in the data set on Leishmania infantum is 4.50. Moreover, the values for the CC50 at 72 h in data set [1] and in data set [2] were 23.4 µM and 42.7 µM, respectively. Further, the selectivity ratio in the data set “in vitro [3]” (THP-1 cells) was determined as 0.75; in “in vitro [4]” it was 1.3.
For `CSc1ccc(C(=O)/C=C/c2ccco2)cc1`, the pEC50 with Leishmania infantum was 4.34. The compound also gave a CC50 at 72 h in data set [1] above 50 µM. Also, in “in vitro [3]” (THP-1 cells), the selectivity ratio was above 1.09.
`CCCCc1ccc(C(=O)/C=C/c2ccc([N+](=O)[O-])s2)cc1`: the pEC50 in the data set on Leishmania infantum is below 4.30. The values for the CC50 at 72 h in data set [1] and in data set [2] were 17.1 µM and 81.3 µM, respectively.
On to `O=C(/C=C/c1cccc([N+](=O)[O-])c1)c1ccc(N2CCCCC2)cc1`, for which, in the data set with Leishmania infantum, the pEC50 was 4.51. Besides, the CC50 with THP-1 was above 50 µM. The selectivity ratio in the data set “in vitro [3]” (THP-1 cells) was above 1.62.
In the case of `CCCCc1ccc(C(=O)/C=C/c2ccc([N+](=O)[O-])o2)cc1`, in the data set on Leishmania infantum, the pEC50 is below 4.30. Also, the values for the CC50 at 72 h in data set [1] and in data set [2] were 48.7 µM and 75.7 µM, respectively.
In turn, `O=C(/C=C/c1ccc(Cl)s1)c1ccc(-n2ccnc2)cc1` had a pEC50 in the data set on Leishmania infantum of 4.67. In data set [1], this compound had a CC50 at 72 h above 50 µM. The selectivity ratio in “in vitro [3]” (THP-1 cells) was above 2.33.
`O=C(/C=C/c1ccc([N+](=O)[O-])o1)c1cccc(Br)c1` had a pEC50 in the data set on Leishmania infantum of 4.62. The CC50 with THP-1 came out at 14.9 µM; with Vero it was 68.8 µM. The selectivity ratio in the data set “in vitro [3]” (THP-1 cells) fell in the range of 0.6 to 0.63; in the data set “in vitro [4]”, 2.8 to 2.9.
Take `CSc1ccc(C(=O)/C=C/c2ccc([N+](=O)[O-])o2)cc1`: the pEC50 with Leishmania infantum is 5.03. The same compound showed a CC50 at 72 h in data set [1] of 13.1 µM. The compound further yielded a CC50 with Vero of 40.7 µM. Besides, the selectivity ratio is 1.4 to 1.41 in “in vitro [3]” (THP-1 cells) and 4.3 in the data set “in vitro [4]”.
Turning to `C[C@@H]1[C@H](O)[C@@H](C)/C=C/C=C/C=C/C=C/C=C/C=C/C=C/[C@H](O[C@@H]2O[C@H](C)[C@@H](O)[C@H](N)[C@@H]2O)C[C@@H]2O[C@](O)(C[C@@H](O)C[C@@H](O)[C@H](O)CC[C@@H](O)C[C@@H](O)CC(=O)O[C@H]1C)C[C@H](O)[C@H]2C(=O)O` [AMPHOTERICIN B], the pEC50 with Leishmania infantum is 5.72. In data set [1], the CC50 at 72 h was above 50 µM. In addition, the selectivity ratio in “in vitro [3]” is above 26.
